5 compounds from PMC7749635 (2021) can be followed below.

Common to all, as to test: in-line probing
The subject of test [1] is 65 pnuC (RNA, riboswitch) GGAAAAUCUAUAGAGCGUUGCGUCCGAAAGUCUAAACAGACACGGCUCUUUAAAAACAAAAGGAGAAG
The conditions noted are these: 20 mM Mg2+, 100 mM K+, 50 mM Tris-HCl pH 8.3, ~23 °C.

For test [2], the system named is 85 pnuC (RNA, riboswitch) GGAGGAGAAGCGGUUCAAAUCGAAAAUCUAUAGAGCGUUGCGUCCGAAAGUCUAAACAGACACGGCUCUUUAAAAACAAAAGGAGAAG
Particulars: 20 mM Mg2+, 100 mM K+; 50 mM Tris-HCl pH 8.3, ~23 °C; tested at 0.1 and 1 mM.

Test [3] concerns M1 (G35U) (RNA, riboswitch) GGAAAAUCUAUAGAGCUUUGCGUCCGAAAGUCUAAACAGACACGGCUCUUUAAAAACAAAAGGAGAAG
Particulars: 20 mM Mg2+, 100 mM K+; 50 mM Tris-HCl pH 8.3, ~23 °C; tested at 1 mM.

Test [4] relates to M2 (A60U) (RNA, riboswitch) GGAAAAUCUAUAGAGCGUUGCGUCCGAAAGUCUAAACAGACUCGGCUCUUUAAAAACAAAAGGAGAAG
Particulars: 20 mM Mg2+, 100 mM K+; 50 mM Tris-HCl pH 8.3, ~23 °C; tested at 1 mM.

Take `NC(=O)c1ccc[n+]([C@@H]2O[C@H](COP(=O)([O-])OP(=O)(O)OC[C@H]3O[C@@H](n4cnc5c(N)ncnc54)[C@H](O)[C@@H]3O)[C@@H](O)[C@H]2O)c1`: in test [1] (apparent), the KD is ~ 100 µM.

Turning to `Cc1ncc(C[n+]2csc(CCOP(=O)(O)OP(=O)(O)O)c2C)c(N)n1`, in test [2], the binding result is “no”.

Take `NC(=O)c1ccc[n+]([C@@H]2O[C@H](COP(=O)(O)O)[C@@H](O)[C@H]2O)c1`: the binding entry in test [2] is reported as “yes”; in test [3], “no”; in test [4], “no”.

Take `Cc1cc2nc3c(=O)[nH]c(=O)nc-3n(C[C@H](O)[C@H](O)[C@H](O)COP(=O)(O)O)c2cc1C`: the binding result in test [2] was “no”.

With `O=C(O)c1cccnc1`, the binding result in test [1] (tested at 0.1 and 1 mM) is “no”.
